Consider 70 molecules from PubChem BioAssay AID179 (DTP/NCI, 2004).

SMILES strings stand for the structures. “And” between values parts separate entries of the source, which are not always exact repeats. Equal values may be shown once. The source made the active and inactive calls.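 The calls were made as follows: active = compounds giving half or more protection of infected cells from virus-caused growth loss, again on retest; inactive = the rest.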 Where a SMILES comes first, the peptide text is derived from it. Bounds are passed on as bounds.

What is called EC50 is the concentration giving half of the maximal effect. In general, IC50 refers to the concentration needed to halve the response being measured. High values mean weaker potency in that assay, low ones greater potency in that assay.

The subject of the assay is CEM cells HIV-1 protection, formazan growth assay. Description: NCI AIDS Antiviral Assay. The settings on record: for IC50: measured here: growth of uninfected CEM cells. In a few lines:
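Category rules: moderately active means at least 50% protection on retest, and confirmed active means 100% protection reproducibly. The underlying data came from a formazan growth assay in HIV-1-infected CEM cells.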

With `O=C(O)C(O)(O)C(O)(O)C(=O)O`, the EC50 was above 200 µM and the IC50 was above 200 µM.
Consider `COC1=CC(=O)C(CO)=CC1=O`, for which the EC50 was above 200 µM and the half-inhibitory concentration (IC50) stood at 7.59 µM.
For `COC(=O)c1nc2c(C)c(O)c(O)c([C@H](C)CCC=C(C)C)c2o1`, the EC50 is above 200 µM and the IC50 turned out to be 13.5 µM.
The like results for `CCO/N=[N+](\[O-])N(CC)CC` were, in that order, above 9770 µM and 8710 µM.
Consider `C=CCOCn1cnc2c(=O)[nH]c(N)nc21`, for which the EC50 is above 200 µM and the IC50 was above 200 µM.
For `Cc1oc2c(c1C(=O)c1ccccc1)C(=O)c1ccccc1C2=O`, the EC50 was above 58.9 µM and the IC50 worked out at 11.7 µM.
On to `CC(=O)C1CC[C@@H]2[C@H](CC[C@]3(C)[C@@H](O)CC[C@@H]23)[C@H]1C(=O)O` (some centres undefined), for which the EC50 was above 200 µM and the IC50 is above 200 µM.
Turning to `COc1cc(N)c2c(c1)SCC(=O)N2`, the EC50 was above 200 µM and the IC50 was 148 µM.
As for `CCCCNC(=S)/N=C/c1c(O)c2ccccc2oc1=O`, the EC50 was above 200 µM and the IC50 was 182 µM.
As to `O=C(O)c1cccc(Sc2ccccc2)c1`, the EC50 was above 407 µM and the half-maximal inhibitory concentration (IC50) turned out to be 251 µM.
Regarding `Nc1ccc(N=Nc2ccc(-c3ccc(O)cc3)cc2)c2ccc(S(=O)(=O)O)cc12`, the concentration for a half-maximal effect (EC50) was determined as 7.94 µM and the IC50 was above 200 µM.
Turning to `Cc1ccc(C(=O)NC2C(=O)NC(C(C)C)C(=O)N3CCCC3C(=O)N(C)CC(=O)N(C)C(C(C)C)C(=O)OC2C)c2c1Oc1c(c(C(=O)NC3C(=O)NC(C(C)C)C(=O)N4CCCC4C(=O)N(C)CC(=O)N(C)C(C(C)C)C(=O)OC3C)c3nc(-c4ccccc4)c(=O)oc3c1C)N2` (centres undefined), the EC50 is above 19.1 µM and the IC50 stood at 0.00794 µM.
The like results for `Cn1c(-c2cccc([N+](=O)[O-])c2)[n+](C)c2ccccc21` were, in that order, above 200 µM and 18.6 µM.
Regarding `O=C(Nc1ccc(NC(=O)Nc2cc(C(=O)Nc3ccc(C4=NCCN4)cc3)ccc2C(=O)Nc2ccc(C3=NCCN3)cc2)cc1)Nc1cc(C(=O)Nc2ccc(C3=NCCN3)cc2)ccc1C(=O)Nc1ccc(C2=NCCN2)cc1`, the EC50 was 31.6 µM and the concentration for half-maximal inhibition (IC50) was above 100 µM.
As to `CC(=O)NC1C(OCc2ccccc2)OC(CO)C(O)C1OC(C)C(=O)NC(C)C(=O)N[C@@H](CCC(=O)OCCCNC1c2ccccc2Nc2cccc([N+](=O)[O-])c21)C(N)=O` (some centres undefined), the outcome was inactive.
As for `C=CCN(CCNS(=O)(=O)c1ccc(C)cc1)S(=O)(=O)c1ccc(C)cc1`, the EC50 is above 33.1 µM and the IC50 is above 33.1 µM.
In the case of `CCOC(=O)C(NC(=O)CC)(Nc1ccc(S(=O)(=O)Nc2onc(C)c2C)cc1)C(F)(F)F` (centres undefined), the EC50 was above 200 µM and the concentration for half-maximal inhibition (IC50) was above 200 µM.
Take `CS(=O)(=O)C(CC(S(C)(=O)=O)S(C)(=O)=O)S(C)(=O)=O`: the EC50 is above 20.4 µM and the IC50 was above 20.4 µM.
Regarding `c1ccc(Nc2cc(Nc3ccccc3)cc(Nc3ccccc3)c2)cc1`, the EC50 was above 200 µM and the IC50 came out at 26.3 µM.
As for `CC[C@@]1(OC(=O)C(N)CCCCN)C(=O)OCc2c1cc1n(c2=O)Cc2cc3ccccc3nc2-1` (some centres undefined), the EC50 is above 10 µM and the IC50 amounted to 0.0112 µM.
For `CCCCn1c(-c2ccccc2)cs/c1=N\N=C1C=C(C(C)(C)C)C(=O)C(C(C)(C)C)=C1`, in that order: above 15.8 µM and above 15.8 µM.
Consider `COC(=O)CN1CCSC1=NC#N`, for which the result was inactive.
As for `CCC(COCC(CC)C(=O)O)C(=O)O` (centres undefined), the result was inactive.
Regarding `Clc1ccc(C2=NN(c3ccccc3)C3c4cc(Br)ccc4OCC23)cc1` (centres undefined), the EC50 is above 11.7 µM and the IC50 was above 11.7 µM.
In the case of `COC(=O)/C(=N\NC(N)=O)C(C#N)c1ccccc1` (centres undefined), the EC50 was above 692 µM and the IC50 is above 692 µM.
`CC/C(Cl)=N\OC(=O)Nc1ccc(C#N)cc1`: the EC50 was above 200 µM and the IC50 was found to be 18.2 µM.
The like results for `Cc1cn(C2OC(C)(CO)C(O)C2O)c(=O)[nH]c1=O` (centres undefined) were, in that order, above 912 µM and above 912 µM.
Regarding `CC(C)CC(NC(=O)C(Cc1ccc(O)cc1)NC(=O)C(CO)NC(=O)C(N)CCC(=O)O)C(=O)NCC(=O)O` (centres undefined) (H-ESYLG-OH; configuration not given here), the result was inactive.
On to `CCOC(=O)C1=C(Nc2ccc(Br)cc2)OC/C1=N\NC(=O)c1ccccc1O`, for which the EC50 was above 38.9 µM and the half-maximal inhibitory concentration (IC50) is 3.98 µM.
For `c1ccc(C2=NOC3COc4ccccc4OCC23)cc1` (centres undefined), the EC50 is above 93.3 µM and the IC50 was above 93.3 µM.
In the case of `CC(C)CC12CC3CCC(CNC1=O)C32C` (centres undefined), the result was inactive.
In the case of `COc1cc2c3cc1Oc1c(OC)c(OC)cc4c1C(Cc1ccc(cc1)Oc1cc(ccc1O)CC3N(C)CC2)N(C)CC4` (centres undefined), the EC50 is above 22.4 µM, the result was inactive and the IC50 is above 22.4 µM.
For the molecule `Cc1[nH]c2[nH]c(=S)nc(NC(N)=S)c2c1Cc1ccccc1`, the EC50 is above 100 µM and the half-inhibitory concentration (IC50) was 41.7 µM.
Turning to `Cc1c(CCCl)c(Cl)n2c(nc3ccccc32)c1C#N`, the EC50 was above 33.9 µM and the IC50 was found to be 0.537 µM.
For the molecule `CCOC(=O)Nc1ccc(C(=O)/C=C\c2ccc(N(CC)CC)cc2)cc1`, the EC50 is above 200 µM and the IC50 amounted to 3.72 µM.
Turning to `Cc1nc(-c2nc(C)c(C(=O)NN(C)C)s2)sc1C(=O)NN(C)C`, the EC50 was above 70.8 µM and the IC50 was above 70.8 µM.
Regarding `CN(C)c1ccc2c(c1)C(=O)N(OS(=O)(=O)c1ccc([N+](=O)[O-])cc1)C2=O`, the EC50 was above 47.9 µM and the IC50 turned out to be 20.4 µM.
As to `NCCCNCCSSCc1ccccc1CSSCCNCCCN`, the result was inactive.
Turning to `O=C1NCN(C2CCCCC2)CN1`, the EC50 was above 200 µM and the IC50 was above 200 µM.
For `COc1ccc(OC)c2c(Nc3ccc(S(=O)(=O)O)c4cc(S(=O)(=O)O)cc(S(=O)(=O)O)c34)cc(C)nc12`, the EC50 is above 200 µM and the IC50 was above 200 µM.
With `O=[N+]([O-])C1(C[Se]c2cccc(C(F)(F)F)c2)CCCCC1`, the outcome was inactive.
Regarding `COc1ccc(OC)c(N(CN2C(=O)CCC2C(=O)O)C(C)=O)c1` (centres undefined), the EC50 is above 200 µM and the 50% inhibitory concentration (IC50) was above 200 µM.
In the case of `CC(=O)Nc1ccc(/C=C2\SC(=S)N(/C=C3/C(=O)N(c4ccccc4)N=C3C)C2=O)cc1`, the EC50 is above 200 µM and the half-inhibitory concentration (IC50) worked out at 72.4 µM.
Consider `COc1ccc2nc(NC(=O)C(=O)C(C#N)c3ccc(Cl)c(Cl)c3)sc2c1` (centres undefined), for which the result was inactive.
As for `Nc1ncnc2c1[nH]c(=O)n2-c1ccccc1`, the EC50 is above 200 µM and the 50% inhibitory concentration (IC50) was 178 µM.
As for `CC(C1=CC(=O)c2c(O)ccc(O)c2C1=O)C1=CC(=O)c2c(O)ccc(O)c2C1=O`, the result was inactive.
As for `S=P(c1ccccc1)(c1ccccc1)C1(C2(P(=S)(c3ccccc3)c3ccccc3)CC2)CC1`, the EC50 is above 10 µM and the IC50 is above 10 µM.
`O=C(O)CCC(=O)NCCNC(=O)CC(=O)O`: the EC50 was above 1000 µM and the half-inhibitory concentration (IC50) is above 1000 µM.
Consider `CC1CC(C2=CC=CCS2)=Nc2ccccc2S1` (centres undefined), for which the EC50 was above 55 µM and the IC50 turned out to be 53.7 µM.
The like results for `O=c1cn[nH]c2c(Br)cc(Br)cc12` were, in that order, above 70.8 µM and above 70.8 µM.
For `COc1ccc(NC(=O)C(=O)c2c(O)c3ccc(O)cc3oc2=O)c([N+](=O)[O-])c1`, in that order: above 447 µM and 229 µM.
With `CC(=O)OC12c3ccccc3C(c3ccccc31)C1C(=O)N(c3ccccn3)C(=O)C12` (centres undefined), the EC50 was above 200 µM and the concentration for half-maximal inhibition (IC50) is above 200 µM.
On to `COC(=O)C(C(=O)C(=O)Nc1ccc(Br)cc1)c1nc2ccc(Cl)cc2[nH]c1=O` (centres undefined), for which the EC50 is above 75.9 µM and the IC50 stood at 4.07 µM.
As for `N=C(N)C1CN(CCCCCCCCCCN2CC(C(=N)N)C(=O)NC2=O)C(=O)NC1=O` (centres undefined), the EC50 was above 200 µM and the half-maximal inhibitory concentration (IC50) was above 200 µM.
On to `CN(c1ccccc1Cl)S(=O)(=O)c1ccc([N+](=O)[O-])cc1`, for which the EC50 was above 200 µM and the IC50 was above 200 µM.
In the case of `O=C1c2ccccc2C(c2ccccc2)(N2CCCCC2)N1c1ccccc1` (centres undefined), the EC50 was above 17.4 µM and the IC50 was above 17.4 µM.
`CN=c1c2c(c3[nH]c4ccccc4c4cnc1c34)NCCC2=O`: the EC50 is above 200 µM and the concentration for half-maximal inhibition (IC50) is 1.41 µM.
As to `N#CN=C(N)c1sc2nc3c(c(-c4ccc(Br)cc4)c2c1N)CCCC3`, the EC50 is above 200 µM and the 50% inhibitory concentration (IC50) was determined as 7.08 µM.
On to `Cc1ccc(S(=O)S(=O)c2ccc(C)cc2)cc1` (centres undefined), for which the result was inactive.
Regarding `COc1ccc2c(c1)CC1c3[nH]c4ccccc4c3CCN1C2` (centres undefined), the EC50 was 56.2 µM and > 102 µM; the 50% inhibitory concentration (IC50) was 102 µM and 46.8 µM.
For the molecule `CCN(CC)CC(C)C(O)(c1ccc(Cl)cc1)C1CCCCC1` (centres undefined), the EC50 was above 200 µM and the half-inhibitory concentration (IC50) was 13.2 µM.
As for `COc1ccc(/C(=N\N=C(N)N)C(c2ccc(OC)cc2)C2OC(=O)c3ccccc32)cc1` (centres undefined), the EC50 is above 3.24 µM and the IC50 is above 3.24 µM.
Turning to `Nc1ccc(I)cn1`, the EC50 was above 200 µM and the IC50 is above 200 µM.
In the case of `COCn1c(C(=O)c2ccccc2)c(C)c(=O)[nH]c1=O`, the EC50 is 70.8 µM and the 50% inhibitory concentration (IC50) was above 200 µM.
As for `CCN(CC)c1c(-c2c(N(CC)CC)c(OC(C)=O)c3sccn3c2=O)c(=O)n2ccsc2c1OC(C)=O`, the EC50 is above 200 µM and the concentration for half-maximal inhibition (IC50) is above 200 µM.
In the case of `COc1cc2c(oc(=O)c3c4oc([Si](C)(C)C)cc4cc(OC)c23)c2cccc(O)c12`, the EC50 is above 1.74 µM and the half-inhibitory concentration (IC50) was above 1.74 µM.
For `CN1C/C(=C\c2cccs2)C2=NN(C)C(c3cccs3)C2C1` (centres undefined), the EC50 is above 200 µM and the IC50 was above 200 µM.
As to `O=C(CC(=O)N1N=C(N(c2ccccc2)c2ccccc2)CC1c1ccccc1)Nc1ccccc1` (centres undefined), the outcome was inactive.
Regarding `Cc1cc2c(C(C)C)c(O)c(O)c(C=NCC3CCCN4CCCCC34)c2cc1-c1cc2c(C=NCC3CCCN4CCCCC34)c(O)c(O)c(C(C)C)c2cc1C` (centres undefined), the EC50 was 4.68 µM and the IC50 was determined as 6.61 µM.
For the molecule `COC(=O)CCC(=O)CC1CC(=O)C2CCCN12` (centres undefined), the outcome was inactive.
